The source of these data is ChEMBL document CHEMBL5625185 (Eur J Med Chem, 2023).

SMILES strings stand for the structures.

What all share (assay type): ADME, organism-based
What all share (details): in vivo

The nature of data set [1]: Drug distribution in wild type mouse testis at 50 mg/kg, po measured after 1 hr by UPLC-QTOFMS analysis.
Data set [2] is described as follows: Drug distribution in wild type mouse brain at 50 mg/kg, po measured after 1 hr by UPLC-QTOFMS analysis.
The nature of data set [3]: Drug distribution in wild type mouse kidney at 50 mg/kg, po measured after 1 hr by UPLC-QTOFMS analysis.
Data set [4] in a line: Drug distribution in wild type mouse liver at 50 mg/kg, po measured after 1 hr by UPLC-QTOFMS analysis.
Data set [5] in a line: Drug distribution in wild type mouse spleen at 50 mg/kg, po measured after 1 hr by UPLC-QTOFMS analysis.
Data set [6] is described as follows: Cmax in wild type mouse at 50 mg/kg, po measured upto 8 hrs by UPLC-QTOFMS analysis.
Data set [7] can be described thus: Drug distribution in wild type mouse lung at 50 mg/kg, po measured after 1 hr by UPLC-QTOFMS analysis.

On to `COc1ccc2c3c([nH]c2c1)[C@H](CC(C)C)N1C(=O)[C@H](CCC(=O)NC(C)C)NC(=O)[C@@H]1C3`, for which the Drug uptake result in data set [1] is reported as “Not Active”; in data set [2], “Not Active”; in data set [3], “Active”; in data set [4], “Active”; in data set [5], “Active”; in data set [7] it was “Active”. In data set [6], this compound registered a Cmax of 8.74 µM.

In the case of `COc1ccc2c3c([nH]c2c1)[C@H](CC(C)C)N1C(=O)[C@H](CCC(=O)NC(C)(C)C)NC(=O)[C@@H]1C3`, the Drug uptake entry is on record as “Not Active” in data set [1]; “Not Active” in data set [2]; “Active” in data set [3]; “Active” in data set [4]; “Active” in data set [5]; “Active” in data set [7].

A word on the Cmax: it is the highest concentration seen after dosing.
